Patent US20100119483A1, “PEPTIDE VIRAL ENTRY INHIBITORS” (Schering Corporation, priority 2004, published 2010)
Several values for one entry are separate records, joined by “and”; a condition that tells them apart may be missing. Equal entries are not always repeated.

Test system: HCV pseudoparticles
Test: HCV pseudoparticle (HCVpp) entry assay in Huh7 hepatoma cells, luciferase readout
Format: cell-based, hepatitis C virus
Conditions: for % of control at ~30 uM: percentage of hepatitis C virus cellular entry at 30 μM peptide vs uninhibited control
Procedure: HCV pseudotype particle generation. Single cycle HCV pseudoparticles are composed of a replication-defective HIV genome and HCV envelope proteins. These pseudoparticles were made by transfecting 293T cells with 5 ug of each pNL43E-R-luc (Chen et al., J. Virol. 68(2):654-60 (1994)) and plasmid expressing HCV envelope proteins pCMV/E1-2 with profection transfection kit from Promega (Madison, Wis.). The medium was refreshed 12-24 hours after transfection and supernatant was collected 48 hours after transfection. The supernatant from a transfection of only pNL43E-R-luc was used each time as a control for non specific entry events.
Infection of hepatoma cell lines with HCV pseudotype particles and screen for inhibitory peptides. The hepatoma cells, Huh7, was seeded at 8000 cells in 90 ul medium in 96-well plate. In the case of the inhibitor screen, the inhibitor was incubated with cells for one hour at 37° C. and then 50 ul viral supernatant was added to the cells 24 hours after seeding. The viral stock was pre-tittered and diluted to yield approximately 10,000 to 20,000 RLU. The cells were incubated at 37° C. with 5% CO2 for additional 72 hours and were harvested for luciferase assay. Peptide stocks were prepared in 100% DMSO at 10 mg/ml and were first screened at 100 ug/ml and then a dose responsive curve was generated with 10 points 3-fold titration starting from 100 ug/ml.
The peptide of SEQ ID NO: 77 was first serial diluted by the factor of 3 in 100% DMSO from 100 ug/ml and then transferred to the assay plates at 100-fold dilution. The peptide was first incubated with cells and HCVpp (A) or HIVpp (B), respectively, for 30 minutes at […] in this experiment. Then, the medium containing the peptide was removed from the cells and virus with peptide was added to the cells. Cells were incubated for 72 hours and then were harvested for luciferase assay. Two separate trials were performed.
In addition, the peptide of SEQ ID NO: 77 was mutated at several positions and assayed in the HCV entry assay discussed above. […] The assays were performed essentially as described above.

[1] = 0.1 nM of peptide (printed for three rows), two values per peptide and row
[2] = 0.3 nM of peptide, two values per peptide
[3] = 1 nM of peptide, two values per peptide
[4] = 3 nM of peptide, two values per peptide
[5] = 10 nM of peptide, two values per peptide
[6] = 30 nM of peptide, two values per peptide
[7] = 100 nM of peptide, two values per peptide
[8] = 300 nM of peptide, two values per peptide
[9] = 10000 nM of peptide, two values per peptide
[10] = 30000 nM of peptide, two values per peptide

Substance: A-A-K-W-E-Y-V-L-L-L-F-L-L (AAKWEYVLLLFLL; HCV peptide) [SEQ ID NO: 87, Ala-scan]
- % control (HCVpp entry), alanine scanning [1]: 90 % control and 108 % control and 113 % control and 93 % control and 104 % control
- % control (HCVpp entry), alanine scanning [2]: 84 % control and 75 % control
- % control (HCVpp entry), alanine scanning [3]: 110 % control and 93 % control
- % control (HCVpp entry), alanine scanning [4]: 92 % control and 68 % control
- % control (HCVpp entry), alanine scanning [5]: 45 % control and 57 % control
- % control (HCVpp entry), alanine scanning [6]: 42 % control and 51 % control
- % control (HCVpp entry), alanine scanning [7]: 19 % control and 15 % control
- % control (HCVpp entry), alanine scanning [8]: 16 % control and 13 % control
- % control (HCVpp entry), alanine scanning [9]: 15 % control and 23 % control
- % control (HCVpp entry), alanine scanning [10]: 11 % control and 6 % control
- % of control at ~30 uM: 14%

Substance: A-G-K-W-E-Y-V-L-L-L-F-L-L (AGKWEYVLLLFLL; HCV peptide) [SEQ ID NO: 83, Gly-scan]
- % control (HCVpp entry), glycine scanning (0.00003 uM of peptide, two values per peptide and row): 98 % control and 80 % control and 128 % control and 94 % control
- % control (HCVpp entry), glycine scanning (0.0001 uM of peptide, two values per peptide): 75 % control and 94 % control
- % control (HCVpp entry), glycine scanning (0.0003 uM of peptide, two values per peptide): 94 % control and 83 % control
- % control (HCVpp entry), glycine scanning (0.001 uM of peptide, two values per peptide): 70 % control and 67 % control
- % control (HCVpp entry), glycine scanning (0.003 uM of peptide, two values per peptide): 51 % control and 66 % control
- % control (HCVpp entry), glycine scanning (0.01 uM of peptide, two values per peptide): 76 % control and 56 % control
- % control (HCVpp entry), glycine scanning (0.03 uM of peptide, two values per peptide): 43 % control and 62 % control
- % control (HCVpp entry), glycine scanning (30 uM of peptide, two values per peptide): 18 % control and 15 % control
- % of control at ~30 uM: 9%

Substance: A-I-A-W-E-Y-V-L-L-L-F-L-L (AIAWEYVLLLFLL; HCV peptide) [SEQ ID NO: 88, Ala-scan]
- % control (HCVpp entry), alanine scanning [1]: 96 % control and 85 % control and 87 % control and 108 % control and 109 % control
- % control (HCVpp entry), alanine scanning [2]: 91 % control and 101 % control
- % control (HCVpp entry), alanine scanning [3]: 100 % control and 69 % control
- % control (HCVpp entry), alanine scanning [4]: 81 % control and 93 % control
- % control (HCVpp entry), alanine scanning [5]: 56 % control and 60 % control
- % control (HCVpp entry), alanine scanning [6]: 53 % control and 66 % control
- % control (HCVpp entry), alanine scanning [7]: 37 % control and 57 % control
- % control (HCVpp entry), alanine scanning [8]: 42 % control and 45 % control
- % control (HCVpp entry), alanine scanning [9]: 27 % control and 32 % control
- % of control at ~30 uM: 9%

Substance: A-I-K-A-E-Y-V-L-L-L-F-L-L (AIKAEYVLLLFLL; HCV peptide) [SEQ ID NO: 89, Ala-scan]
- % control (HCVpp entry), alanine scanning [1]: 76 % control and 84 % control and 95 % control and 104 % control and 105 % control and 96 % control
- % control (HCVpp entry), alanine scanning [2]: 64 % control and 71 % control
- % control (HCVpp entry), alanine scanning [3]: 96 % control and 85 % control
- % control (HCVpp entry), alanine scanning [4]: 76 % control and 63 % control
- % control (HCVpp entry), alanine scanning [5]: 57 % control and 63 % control
- % control (HCVpp entry), alanine scanning [6]: 71 % control and 66 % control
- % control (HCVpp entry), alanine scanning [7]: 38 % control and 41 % control
- % control (HCVpp entry), alanine scanning [8]: 27 % control and 24 % control
- % control (HCVpp entry), alanine scanning [9]: 17 % control and 24 % control
- % of control at ~30 uM: 8%

Substance: A-I-K-K-E-Y-V-L-L-L-F-L-L (AIKKEYVLLLFLL; HCV peptide) [SEQ ID NO: 128]
- % control (HCVpp entry), lysine scanning [1]: 80 % control and 86 % control and 107 % control and 102 % control and 87 % control and 103 % control
- % control (HCVpp entry), lysine scanning [2]: 64 % control and 88 % control
- % control (HCVpp entry), lysine scanning [3]: 99 % control and 72 % control
- % control (HCVpp entry), lysine scanning [4]: 84 % control and 81 % control
- % control (HCVpp entry), lysine scanning [5]: 63 % control and 92 % control
- % control (HCVpp entry), lysine scanning [6]: 59 % control and 55 % control
- % control (HCVpp entry), lysine scanning [7]: 52 % control and 46 % control
- % control (HCVpp entry), lysine scanning [8]: 22 % control and 28 % control
- % control (HCVpp entry), lysine scanning [9]: 7 % control and 4 % control

Substance: A-I-K-P-E-Y-V-L-L-L-F-L-L (AIKPEYVLLLFLL; HCV peptide) [SEQ ID NO: 118]
- % control (HCVpp entry), proline scanning [1]: 87 % control and 80 % control and 108 % control and 103 % control and 79 % control and 110 % control
- % control (HCVpp entry), proline scanning [2]: 92 % control and 101 % control
- % control (HCVpp entry), proline scanning [3]: 99 % control and 74 % control
- % control (HCVpp entry), proline scanning [4]: 84 % control and 108 % control
- % control (HCVpp entry), proline scanning [5]: 83 % control and 116 % control
- % control (HCVpp entry), proline scanning [6]: 93 % control and 63 % control
- % control (HCVpp entry), proline scanning [7]: 53 % control and 47 % control
- % control (HCVpp entry), proline scanning [8]: 29 % control and 38 % control
- % control (HCVpp entry), proline scanning [10]: 33 % control and 24 % control

Substance: A-I-K-W-A-Y-V-L-L-L-F-L-L (AIKWAYVLLLFLL; HCV peptide) [SEQ ID NO: 90, Ala-scan]
- % control (HCVpp entry), alanine scanning [1]: 105 % control and 98 % control and 82 % control and 106 % control and 116 % control and 96 % control
- % control (HCVpp entry), alanine scanning [2]: 73 % control and 94 % control
- % control (HCVpp entry), alanine scanning [3]: 66 % control and 98 % control
- % control (HCVpp entry), alanine scanning [4]: 106 % control and 81 % control
- % control (HCVpp entry), alanine scanning [5]: 66 % control and 46 % control
- % control (HCVpp entry), alanine scanning [6]: 69 % control and 63 % control
- % control (HCVpp entry), alanine scanning [7]: 51 % control and 43 % control
- % control (HCVpp entry), alanine scanning [8]: 55 % control
- % of control at ~30 uM: 13%

Substance: A-I-K-W-E-A-V-L-L-L-F-L-L (AIKWEAVLLLFLL; HCV peptide) [SEQ ID NO: 91, Ala-scan]
- % control (HCVpp entry), alanine scanning [1]: 101 % control and 73 % control and 107 % control and 89 % control and 93 % control and 111 % control
- % control (HCVpp entry), alanine scanning [2]: 81 % control and 84 % control
- % control (HCVpp entry), alanine scanning [3]: 120 % control and 102 % control
- % control (HCVpp entry), alanine scanning [4]: 86 % control and 110 % control
- % control (HCVpp entry), alanine scanning [5]: 59 % control and 66 % control
- % control (HCVpp entry), alanine scanning [6]: 49 % control and 48 % control
- % control (HCVpp entry), alanine scanning [7]: 35 % control and 32 % control
- % control (HCVpp entry), alanine scanning [8]: 17 % control and 27 % control
- % control (HCVpp entry), alanine scanning [9]: 30 % control and 15 % control
- % control (HCVpp entry), alanine scanning [10]: 12 % control and 18 % control
- % of control at ~30 uM: 16%

Substance: A-I-K-W-E-K-V-L-L-L-F-L-L (AIKWEKVLLLFLL; HCV peptide) [SEQ ID NO: 130]
- % control (HCVpp entry), lysine scanning [1]: 122 % control and 84 % control and 106 % control and 96 % control and 105 % control and 93 % control
- % control (HCVpp entry), lysine scanning [2]: 103 % control and 100 % control
- % control (HCVpp entry), lysine scanning [3]: 114 % control and 89 % control
- % control (HCVpp entry), lysine scanning [4]: 95 % control and 81 % control
- % control (HCVpp entry), lysine scanning [5]: 90 % control and 102 % control
- % control (HCVpp entry), lysine scanning [6]: 74 % control and 75 % control
- % control (HCVpp entry), lysine scanning [8]: 33 % control and 19 % control
